US11186543B2, “Crystalline form of 3-((L-valyl)amino))-3,3-dideuterium-1-propanesulfonic acid, preparation method and uses thereof” (RISEN (SUZHOU) PHARMA TECH CO., LTD., priority 2018, dated 2021)

Assays:
Type in all cases: physicochemical
[1] = Stability test of Crystalline Form A (XRD and DSC, Day 0 / Day 10); conditions: for change of crystalline form (XRD test): within 10 days
Description: Sample and experimental preparation: the Crystalline Form A as prepared in Example 2 was taken as a sample; a proper amount of the sample was weighted and placed on a watch glass to form a thin layer of about 3˜5 mm in thickness.
Experimental conditions: conventional (sealed and kept in darkness at 25° C.), long-term (uncovered and kept in darkness with −60% RH at 25° C.), and accelerated (uncovered and kept in darkness with −75% RH at 40° C.) conditions.
Detection time: Day 0, Day 10.
Detected items: crystalline forms (XRD test), and melting points (DSC test).

[2] = Dynamic Vapor Sorption (DVS) analysis; conditions: from 0% RH to 80% RH, 25° C.
Description: The dynamic vapor sorption (DVS) instrument involved herein is Q5000TGA from TA Instruments; detection conditions: a platinum crucible, a protective atmosphere of nitrogen, a gas flow rate of 10 mL/min; and the following detection method: [table] 5. Dynamic Vapor Sorption (DVS) Analysis of Said Crystalline Form A The determination was carried out using the aforementioned instruments, determination methods, operating conditions, and parameters.

[3] = Thermogravimetric Analysis (TGA)
Description: The thermogravimetric analyzer (TGA) involved herein is Q500TGA from TA Instruments; detection conditions: a platinum crucible, a protective atmosphere of nitrogen, a gas flow rate of 40 mL/min; and the following detection method: a Hi-Res sensitivity of 3.0, ramp 10.00° C./min, res 5.0 to 150.00° C., and ramp 10.00° C./min to 350° C. 4. Thermogravimetric Analysis (TGA) of Said Crystalline Form A The determination was carried out using the aforementioned instruments, determination methods, operating conditions, and parameters.

SMILES: [2H]C([2H])(CCS(=O)(=O)O)NC(=O)[C@@H](N)C(C)C [Crystalline Form A, 3-((L-valyl)amino)-3,3-dideuterium-1-propanesulfonic acid]
- variation of melting point (DSC test) [1]: ±1 °C
- change of crystalline form (XRD test) ([1]; accelerated: uncovered, kept in darkness with −75% RH at 40° C.): no change was detected
- change of crystalline form (XRD test) ([1]; conventional: sealed, kept in darkness at 25° C.): no change was detected
- change of crystalline form (XRD test) ([1]; long-term: uncovered, kept in darkness with −60% RH at 25° C.): no change was detected
- hygroscopicity class (DVS determination criteria) [2]: slightly hygroscopic
- weight change (DVS isotherm) [2]: about 0.3 wt %
- weight loss (TGA) ([3]; before 120° C.): about 0.9 wt %
- decomposition temperature (TGA) ([3]; ramp 10° C./min, nitrogen): about 326 °C
